Key:
Type in all cases: in vivo
Abutilon theophrasti = assay: Pre-emergence herbicidal action, ABUTH; design: key to Herbicidal action against ABUTH: % activity: 100 = plants have died, 0 = like control plants; conditions: for Herbicidal action against ABUTH: comparative experiment, 80 g of a.i./ha; for herbicidal action ABUTH / herbicidal activity ABUTH: dosage 320 g/ha; for herbicidal activity ABUTH: scored visually after 3 weeks vs untreated controls (100% = plants have died)
Outline: (§1)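 Pre-emergence soil spray over sandy loam-covered seeds; greenhouse 3 weeks; % visual damage (0% = control, 100% = dead).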

Amaranthus retroflexus = assay: Pre-emergence herbicidal action, AMARE; design: key to Herbicidal action against AMARE: % activity: 100 = plants have died, 0 = like control plants; conditions: for Herbicidal action against AMARE: comparative experiment, 80 g of a.i./ha; for herbicidal action AMARE / herbicidal activity AMARE: dosage 320 g/ha; for herbicidal activity AMARE: scored visually after 3 weeks vs untreated controls (100% = plants have died)
Outline: as §1

Echinochloa crus-galli = assay: Post-emergence herbicidal action, ECHCG; design: key: % herbicidal action vs untreated; 100 = plants died, 0 = like control
Outline: (§2)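 One-leaf-stage weeds, raised from seed in greenhouse sandy loam, received a single foliar spray of compound as wettable powder or emulsion concentrate with 0.2% wetting agent added. Growth continued under optimal conditions for about 3 weeks before percent damage was scored by eye against controls.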

Matricaria inodora = assay: Post-emergence herbicidal action, MATIN; design: key: % herbicidal action vs untreated; 100 = plants died, 0 = like control
Outline: as §2

Polygonum convolvulus [1] = assay: Post-emergence herbicidal action, POLCO; conditions: for Herbicidal action against POLCO: comparative experiment
Outline: as §2

Polygonum convolvulus [2] = assay: Pre-emergence herbicidal action, POLCO; conditions: dosage 320 g/ha; for herbicidal activity POLCO: scored visually after 3 weeks vs untreated controls (100% = plants have died)
Outline: as §1

Pharbitis purpurea = assay: Pre-emergence herbicidal action, PHBPU; conditions: dosage 320 g/ha, scored visually after 3 weeks vs untreated controls (100% = plants have died)
Outline: as §1

[3] = comparative experiment, post-emergence, 20 g of a.i./ha
[4] = post-emergence, 20 g of a.i./ha

SMILES	herbicidal action ABUTH (Abutilon theophrasti)	herbicidal action AMARE (Amaranthus retroflexus)	herbicidal action ECHCG (Echinochloa crus-galli; Dosage 80 g/ha)	herbicidal action MATIN (Matricaria inodora; Dosage 80 g/ha)	herbicidal action POLCO (Polygonum convolvulus [1]; Dosage 80 g/ha)	other results
CCS(=O)(=O)c1c(C(F)(F)F)ccc(C(=O)Nc2nnnn2C)c1Br [Example V-13, 2-bromo-3-(ethylsulfonyl)-N-(1-methyl-1-1H-tetrazol-5-yl)-4-(trifluoromethyl)benzamide, reference compound]						Herbicidal action against ABUTH (Abutilon theophrasti): 0; Herbicidal action against AMARE (Amaranthus retroflexus): 0; Herbicidal action against ECHCG (Echinochloa crus-galli; [3]): 0; Herbicidal action against MATIN (Matricaria inodora; [3]): 0; Herbicidal action against POLCO (Polygonum convolvulus [1]; [4]): 0
CCn1nnnc1NC(=O)c1ccc(Cl)c(CSC)c1Cl [Example 2-559]	100%	100%	100	100	80	
Cc1c(C(=O)Nc2nnnn2C)ccc(C(F)F)c1C[S+](C)[O-] (stereo not shown) [Example 1-108]	100%	100%	80	100		herbicidal action POLCO (Polygonum convolvulus [2]): 90%
Cn1nnnc1NC(=O)c1ccc(C(F)(F)F)c(CSCC(F)(F)F)c1Cl [Example 1-311]			100	100		herbicidal activity ABUTH (Abutilon theophrasti): 100%; herbicidal activity AMARE (Amaranthus retroflexus): 100%; herbicidal activity PHBPU (Pharbitis purpurea): 100%
COc1c(C(=O)Nc2nnnn2C)ccc(C(F)(F)F)c1C[S+](C)[O-] (stereo not shown) [Example 1-135]	100%	100%	90	100		
CCn1nnnc1NC(=O)c1ccc(C(F)F)c(C[S+](C)[O-])c1C (stereo not shown) [Example 2-108]	100%	100%	100	100		
CCn1nnnc1NC(=O)c1ccc(C(F)F)c(CSC)c1SC [Example 2-170]			100	100	90	herbicidal activity ABUTH (Abutilon theophrasti): 100%; herbicidal activity AMARE (Amaranthus retroflexus): 100%; herbicidal activity POLCO (Polygonum convolvulus [2]): 100%
CCCn1nnnc1NC(=O)c1ccc(S(C)(=O)=O)c(CS(C)(=O)=O)c1C [Example 3-39]	100%	100%	90	80		
Cc1ccc(C(=O)Nc2nnnn2C)c(Cl)c1C[S+](C)[O-] (racemic) [Example 1-288]	90%	100%	90	100		herbicidal action POLCO (Polygonum convolvulus [2]): 80%
CCn1nnnc1NC(=O)c1ccc(C(F)(F)F)c(CSCC(F)(F)F)c1Cl [Example 2-311]			100	100	90	herbicidal activity ABUTH (Abutilon theophrasti): 100%; herbicidal activity AMARE (Amaranthus retroflexus): 100%; herbicidal activity POLCO (Polygonum convolvulus [2]): 80%
CCn1nnnc1NC(=O)c1ccc(S(C)(=O)=O)c(CS(C)(=O)=O)c1Cl [Example 2-280]	100%	100%				Herbicidal action against ECHCG (Echinochloa crus-galli; post-emergence, dosage 80 g/ha): 90
CCS(=O)(=O)Cc1c(C(F)(F)F)ccc(C(=O)Nc2nnnn2C)c1Br [Example 1-385]						Herbicidal action against ABUTH (Abutilon theophrasti): 100; herbicidal activity ABUTH (Abutilon theophrasti): 100%; Herbicidal action against AMARE (Amaranthus retroflexus): 100; herbicidal activity AMARE (Amaranthus retroflexus): 100%; herbicidal activity POLCO (Polygonum convolvulus [2]): 90%; Herbicidal action against ECHCG (Echinochloa crus-galli; [3]): 90; herbicidal action ECHCG (Echinochloa crus-galli; post-emergence, dosage 80 g/ha): 90%; Herbicidal action against MATIN (Matricaria inodora; [3]): 90; herbicidal action MATIN (Matricaria inodora; post-emergence, dosage 80 g/ha): 90%; Herbicidal action against POLCO (Polygonum convolvulus [1]; [4]): 70; herbicidal action POLCO (Polygonum convolvulus [1]; post-emergence, dosage 80 g/ha): 90%
CCCn1nnnc1NC(=O)c1ccc(C(F)(F)F)c(C[S+](C)[O-])c1OC (stereo not shown) [Example 3-135]	100%	100%	100	100	100	herbicidal action POLCO (Polygonum convolvulus [2]): 90%
CCCn1nnnc1NC(=O)c1ccc(I)c(C[S+](C)[O-])c1Cl (stereo not shown) [Example 3-363]	100%	100%	100	100	90	
CCn1nnnc1NC(=O)c1ccc(C(F)(F)F)c(CS(=O)(=O)CC)c1C [Example 2-88]	100%	100%	90	90		
CCSCc1c(C(F)(F)F)ccc(C(=O)Nc2nnnn2CC)c1C [Example 2-86]	100%	100%				herbicidal action POLCO (Polygonum convolvulus [2]): 80%; herbicidal action ECHCG (Echinochloa crus-galli; post-emergence, dosage 80 g/ha): 90%; herbicidal action MATIN (Matricaria inodora; post-emergence, dosage 80 g/ha): 100%; herbicidal action POLCO (Polygonum convolvulus [1]; post-emergence, dosage 80 g/ha): 100%
CCCn1nnnc1NC(=O)c1ccc(S(C)(=O)=O)c(CSC)c1C [Example 3-37]	80%	100%	100	90		
CCCn1nnnc1NC(=O)c1ccc(C(F)(F)F)c(CS(=O)(=O)CC)c1Cl [Example 3-301]	100%	100%	90	100	100	
CCCn1nnnc1NC(=O)c1ccc(C(F)(F)F)c(CSCC(F)(F)F)c1Cl [Example 3-311]	100%	100%	100	100	80	
CCCn1nnnc1NC(=O)c1ccc(C(F)(F)F)c(CS(C)(=O)=O)c1Br [Example 3-382]	100%	100%	90	90	80	
CCCn1nnnc1NC(=O)c1ccc(C(F)(F)F)c(CSCC)c1C [Example 3-86]	100%	100%	90	90	80	herbicidal action POLCO (Polygonum convolvulus [2]): 90%
CCn1nnnc1NC(=O)c1ccc(C(F)(F)F)c(CS(=O)(=O)CC)c1Cl [Example 2-301]	100%	100%	90	90	90	
CSCc1c(Cl)ccc(C(=O)Nc2nnnn2C)c1Cl [Example 1-559]	100%	100%				herbicidal action ECHCG (Echinochloa crus-galli; post-emergence, dosage 80 g/ha): 100%; herbicidal action MATIN (Matricaria inodora; post-emergence, dosage 80 g/ha): 100%
CSCc1c(C)ccc(C(=O)Nc2nnnn2C)c1Cl [Example 1-287]	100%	90%	100	100		
CCCn1nnnc1NC(=O)c1ccc(C(F)(F)F)c(CSC)c1SC [Example 3-161]	100%	100%	90	90	80	
COc1c(C(=O)Nc2nnnn2C)ccc(Cl)c1CSC [Example 1-570]	90%	100%				herbicidal action POLCO (Polygonum convolvulus [2]): 80%; Herbicidal action against ECHCG (Echinochloa crus-galli; post-emergence, dosage 80 g/ha): 100; Herbicidal action against MATIN (Matricaria inodora; post-emergence, dosage 80 g/ha): 90; Herbicidal action against POLCO (Polygonum convolvulus [1]; post-emergence, 5 g of a.i./ha): 30
